This assay has as its target Dipeptidyl peptidase 4 (Homo sapiens, UniProt P27487).

IC50 data for 2 compounds are collected here from ChEMBL document CHEMBL1141676, “A three-dimensional pharmacophore model for dipeptidyl peptidase IV inhibitors” (Eur J Med Chem, 2008).

pIC50: −log10 of the molar value.

Chain of Dipeptidyl peptidase 4 (P27487 whole entry): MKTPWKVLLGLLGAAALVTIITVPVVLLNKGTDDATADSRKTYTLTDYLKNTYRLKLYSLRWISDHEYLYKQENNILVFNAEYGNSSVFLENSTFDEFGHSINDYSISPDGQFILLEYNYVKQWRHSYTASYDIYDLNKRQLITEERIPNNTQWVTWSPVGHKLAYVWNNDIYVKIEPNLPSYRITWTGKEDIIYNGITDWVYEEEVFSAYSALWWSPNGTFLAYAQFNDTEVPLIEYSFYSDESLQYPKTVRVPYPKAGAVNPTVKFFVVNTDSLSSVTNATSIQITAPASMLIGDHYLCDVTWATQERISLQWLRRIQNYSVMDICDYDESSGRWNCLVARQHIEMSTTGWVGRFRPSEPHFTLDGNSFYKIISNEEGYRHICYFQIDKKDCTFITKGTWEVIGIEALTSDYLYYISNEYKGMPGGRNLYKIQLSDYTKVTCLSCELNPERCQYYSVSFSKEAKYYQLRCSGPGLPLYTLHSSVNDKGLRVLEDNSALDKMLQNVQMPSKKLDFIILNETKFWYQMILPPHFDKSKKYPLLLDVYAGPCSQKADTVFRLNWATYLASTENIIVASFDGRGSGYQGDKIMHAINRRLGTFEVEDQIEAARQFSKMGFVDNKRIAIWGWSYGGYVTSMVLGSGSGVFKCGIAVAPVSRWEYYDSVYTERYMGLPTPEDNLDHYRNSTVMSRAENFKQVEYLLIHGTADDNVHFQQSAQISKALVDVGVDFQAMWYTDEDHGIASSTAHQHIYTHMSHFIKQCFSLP
Description: Inhibition of human DPP4 expressed in baculovirus system

Regarding `N[C@H](C(=O)N1CCc2ccccc2C1)C1CCCCC1`, the pIC50 (as a rule, −log10 of the IC50, conventionally taken in molar units) is 3.64.

Take `N#C[C@@H]1CCCN1C(=O)CN1CCc2ccccc2C1`: the pIC50 was 3.41.
